Data from patent US20100099774A1 (priority 2007, published 2010).

How the values were obtained:
Format in all cases: cell-based
[1] = system: Colleotrichum lagenarium; settings: 63 ppm, 2% aqueous biomalt solution, 405 nm, 7 days after inoculation, Abbot's formula
[2] = system: Monographella nivalis; settings: 63 ppm
[3] = system: Phytophthora infestans; settings: 63 ppm, pea juice-based aqueous nutrient medium, 405 nm, 7 days after inoculation, Abbot's formula
[4] = system: Pseudocercosporella herpotrichoides R-Type; settings: 63 ppm
[5] = system: Pseudocercosporella herpotrichoides W-Type; settings: 63 ppm
[6] = system: Pyricularia oryzae; settings: 63 ppm, 2% aqueous biomalt solution, 405 nm, 7 days after inoculation, Abbot's formula
[7] = system: Pyrenophora teres; settings: 63 ppm
[8] = system: Rhynchosporium secalis; settings: 63 ppm
[9] = system: Septoria tritici; settings: 63 ppm
[10] = system: Colleotrichum truncatum; settings: 63 ppm, 2% aqueous biomalt solution, 405 nm, 7 days after inoculation, Abbot's formula
[11] = system: Corynespora cassiicola; settings: 63 ppm
[12] = system: Septoria glycines; settings: 63 ppm
[13] = system: Leptosphaeria nodorum; settings: 63 ppm

CCN/C(=N\Nc1c(Cl)cc(C(F)(F)F)cc1Cl)C1(C)CC1(Cl)Cl (stereo not drawn) [compound I-2, N-Ethyl-2,2-dichloro-1-methylcyclopropane-carboxamide-2-(2,6-dichloro-α,α,α-trifluoro-p-tolyl)hydrazone]
Efficacy [1]: 89%
Efficacy [2]: 100%
Efficacy [3]: 100%
Efficacy [4]: 100%
Efficacy [5]: 100%
Efficacy [6]: 91%
Efficacy [7]: 96%
Efficacy [8]: 100%
Efficacy [9]: 100%
Efficacy [10]: 100%
Efficacy [11]: 100%
Efficacy [12]: 100%
Efficacy [13]: 100%
